Assay results: patent US10316017B2, “COT modulators and methods of use thereof” (Gilead Sciences, Inc., priority 2015, dated 2019)

target: T1, human Cot catalytic domain (30-397 amino acids) (Homo sapiens, UniProt P41279); experiment: High Throughput Cot Biochemical Assay (KinEASE TR-FRET); settings: Cot KinEASE TR-FRET, 400 μM ATP; read-out: IC50 HTRF
T1 construct: Purified recombinant human Cot catalytic domain (30-397 amino acids) was purchased from Cama Biosciences; purchased Cama Biosciences (so in the source)
T1 sequence (P41279 30-397): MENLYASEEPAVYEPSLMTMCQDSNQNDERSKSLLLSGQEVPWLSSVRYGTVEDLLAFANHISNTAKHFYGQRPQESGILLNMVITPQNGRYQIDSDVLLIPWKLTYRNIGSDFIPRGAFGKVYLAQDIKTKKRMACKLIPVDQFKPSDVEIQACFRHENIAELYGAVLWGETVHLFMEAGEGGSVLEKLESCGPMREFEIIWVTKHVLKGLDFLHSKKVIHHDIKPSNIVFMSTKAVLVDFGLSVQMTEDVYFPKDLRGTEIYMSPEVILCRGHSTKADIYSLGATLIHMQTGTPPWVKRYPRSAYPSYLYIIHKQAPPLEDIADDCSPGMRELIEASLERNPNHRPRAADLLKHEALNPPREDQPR
In short: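 Recombinant human Cot catalytic domain (aa 30-397), 5 nM, with 1 μM STK3 peptide and 400 μM ATP in MOPS pH 7.0 buffer with MgOAc, DTT, BSA, NP-40, glycerol, 0.1% DMSO. Phosphorylated XL665-peptide detected by Eu-[…] antibody TR-FRET.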

| SMILES | IC50 [µM] |
| --- | --- |
| N#Cc1cnc2c(Cl)cc(N[C@H](c3ccc(F)cc3)c3cn(C4CCNCC4)nn3)cc2c1Nc1ccc(F)c(Cl)c1 [Example 850, (R)-8-chloro-4-((3-chloro-4-fluorophenyl)amino)-6-(((4-fluorophenyl)(1-(piperidin-4-yl)-1H-1,2,3-triazol-4-yl)methyl)amino)quinoline-3-carbonitrile] | 0.926 |
| N#Cc1cnc2c(Cl)cc(N[C@@H](c3ccc(F)cc3)c3cn(C4CCNCC4)nn3)cc2c1Nc1ccc(F)c(Cl)c1 [Example 851, (S)-8-chloro-4-((3-chloro-4-fluorophenyl)amino)-6-(((4-fluorophenyl)(1-(piperidin-4-yl)-1H-1,2,3-triazol-4-yl)methyl)amino)quinoline-3-carbonitrile] | 0.007 |
| Cn1cc(C(Nc2cc(Cl)c3ncc(C#N)c(Nc4ccc(F)c(Cl)c4)c3c2)c2cccc(CN3CCCC3)c2)nn1 (stereo not shown) [Example 852, 8-chloro-4-((3-chloro-4-fluorophenyl)amino)-6-(((1-methyl-1H-1,2,3-triazol-4-yl)(3-(pyrrolidin-1-ylmethyl)phenyl)methyl)amino)quinoline-3-carbonitrile] | 0.022 |
| N#Cc1cnc2c(Cl)cc(NC(c3ccc(F)cc3)c3cn(C4CCN(C(=O)OCc5ccccc5)CC4)nn3)cc2c1Nc1ccc(F)c(Cl)c1 (stereo not shown) [Example 855, benzyl 4-(4-(((8-chloro-4-((3-chloro-4-fluorophenyl)amino)-3-cyanoquinolin-6-yl)amino)(4-fluorophenyl)methyl)-1H-1,2,3-triazol-1-yl)piperidine-1-carboxylate] | 2.4 |
| CCN1CCC(n2cc([C@H](Nc3cc(Cl)c4ncc(C#N)c(Nc5ccc(F)c(Cl)c5)c4c3)c3ccc(Cl)cc3)nn2)CC1 [Example 856, (R)-8-chloro-4-((3-chloro-4-fluorophenyl)amino)-6-(((4-chlorophenyl)(1-(1-ethylpiperidin-4-yl)-1H-1,2,3-triazol-4-yl)methyl)amino)quinoline-3-carbonitrile] | 0.86 |
| N#Cc1cnc2c(Cl)cc(N[C@H](c3ccc(Cl)cc3)c3cn(C4CCNCC4)nn3)cc2c1Nc1ccc(F)c(Cl)c1 [Example 857, (R)-8-chloro-4-((3-chloro-4-fluorophenyl)amino)-6-(((4-chlorophenyl)(1-(piperidin-4-yl)-1H-1,2,3-triazol-4-yl)methyl)amino)quinoline-3-carbonitrile] | 1.34 |
| N#Cc1cnc2c(Cl)cc(NC(c3ccc(F)cc3)c3cccnc3)cc2c1Nc1ccc(F)c(Cl)c1 (stereo not shown) [Example 862, 8-chloro-4-((3-chloro-4-fluorophenyl)amino)-6-(((4-fluorophenyl)(pyridin-3-yl)methyl)amino)quinoline-3-carbonitrile] | 3.96 |
| N#Cc1cnc2c(Cl)cc(NC(c3ccc(F)cc3)c3cn([C@@H]4CCNC4)nn3)cc2c1Nc1ccc(F)c(Cl)c1 (stereo partly drawn) [Example 864, 8-chloro-4-((3-chloro-4-fluorophenyl)amino)-6-(((4-fluorophenyl)(1-((R)-pyrrolidin-3-yl)-1H-1,2,3-triazol-4-yl)methyl)amino)quinoline-3-carbonitrile] | 0.022 |
| CCN1CC[C@@H](n2cc(C(Nc3cc(Cl)c4ncc(C#N)c(Nc5ccc(F)c(Cl)c5)c4c3)c3ccc(F)cc3)nn2)C1 (stereo partly drawn) [Example 865, 8-chloro-4-((3-chloro-4-fluorophenyl)amino)-6-(((1-((R)-1-ethylpyrrolidin-3-yl)-1H-1,2,3-triazol-4-yl)(4-fluorophenyl)methyl)amino) quinoline-3-carbonitrile] | 0.046 |
| N#Cc1cnc2c(Cl)cc(NC(c3ccc(Cl)cc3)c3cn([C@@H]4CCN(C(=O)OCc5ccccc5)C4)nn3)cc2c1Nc1ccc(F)c(Cl)c1 (stereo partly drawn) [Example 866, benzyl (3R)-3-(4-(((8-chloro-4-((3-chloro-4-fluorophenyl)amino)-3-cyanoquinolin-6-yl)amino)(4-chlorophenyl)methyl)-1H-1,2,3-triazol-1-yl)pyrrolidine-1-carboxylate] | 2.1 |
| N#Cc1cnc2c(Cl)cc(NC(c3ccc(Cl)cc3)c3cn([C@@H]4CCNC4)nn3)cc2c1Nc1ccc(F)c(Cl)c1 (stereo partly drawn) [Example 867, 8-chloro-4-((3-chloro-4-fluorophenyl)amino)-6-(((4-chlorophenyl)(1-((R)-pyrrolidin-3-yl)-1H-1,2,3-triazol-4-yl)methyl)amino)quinoline-3-carbonitrile] | 0.046 |

The next lines start with the values.

| IC50 [µM] | SMILES |
| --- | --- |
| 0.119 | CCN1CC[C@@H](n2cc(C(Nc3cc(Cl)c4ncc(C#N)c(Nc5ccc(F)c(Cl)c5)c4c3)c3ccc(Cl)cc3)nn2)C1 (stereo partly drawn) [Example 868, 8-chloro-4-((3-chloro-4-fluorophenyl)amino)-6-(((4-chlorophenyl)(1-((R)-1-ethylpyrrolidin-3-yl)-1H-1,2,3-triazol-4-yl)methyl)amino)quinoline-3-carbonitrile] |
| 0.027 | CCN1CC(n2cc(C(Nc3cc(Cl)c4ncc(C#N)c(Nc5ccc(F)c(Cl)c5)c4c3)c3ccc(F)cc3)nn2)C1 (stereo not shown) [Example 870, 8-chloro-4-((3-chloro-4-fluorophenyl)amino)-6-(((1-(1-ethylazetidin-3-yl)-1H-1,2,3-triazol-4-yl)(4-fluorophenyl)methyl)amino) quinoline-3-carbonitrile] |
| 0.09 | CCN1CC(n2cc(C(Nc3cc(Cl)c4ncc(C#N)c(Nc5ccc(F)c(Cl)c5)c4c3)c3ccc(Cl)cc3)nn2)C1 (stereo not shown) [Example 871, 8-chloro-4-((3-chloro-4-fluorophenyl)amino)-6-(((4-chlorophenyl)(1-(1-ethylazetidin-3-yl)-1H-1,2,3-triazol-4-yl)methyl)amino)quinoline-3-carbonitrile] |
| 0.097 | N#Cc1cnc2c(Cl)cc(NC(c3cc(C(F)(F)F)cc(C(F)(F)F)c3)c3cn(C4CCNCC4)nn3)cc2c1Nc1ccc(F)c(Cl)c1 (stereo not shown) [Example 874, 6-(((3,5-bis(trifluoromethyl)phenyl)(1-(piperidin-4-yl)-1H-1,2,3-triazo1-4-yl)methyl)amino)-8-chloro-4-((3-chloro-4-fluorophenyl)amino)quinoline-3-carbonitrile] |
| 0.066 | N#Cc1cnc2c(Cl)cc(NC(c3cc(F)c(F)c(F)c3)c3cn(C4CCNCC4)nn3)cc2c1Nc1ccc(F)c(Cl)c1 (stereo not shown) [Example 875, 8-chloro-4-((3-chloro-4-fluorophenyl)amino)-6-(((1-(piperidin-4-yl)-1H-1,2,3-triazol-4-yl)(3,4,5-trifluorophenyl)methyl)amino) quinoline-3-carbonitrile] |
| 0.385 | N#Cc1cnc2c(Cl)cc(NC(c3ccc(F)cc3)c3cn([C@H]4CCN(C(=O)OCc5ccccc5)C4)nn3)cc2c1Nc1ccc(F)c(Cl)c1 (stereo partly drawn) [Example 876, benzyl (3S)-3-(4-(((8-chloro-4-((3-chloro-4-fluorophenyl)amino)-3-cyanoquinolin-6-yl)amino)(4-fluorophenyl)methyl)-1H-1,2,3-triazol-1-yl)pyrrolidine-1-carboxylate] |
| 0.047 | CCN1CC[C@H](n2cc(C(Nc3cc(Cl)c4ncc(C#N)c(Nc5ccc(F)c(Cl)c5)c4c3)c3ccc(F)cc3)nn2)C1 (stereo partly drawn) [Example 877, 8-chloro-4-((3-chloro-4-fluorophenyl)amino)-6-(((1-((S)-1-ethylpyrrolidin-3-yl)-1H-1,2,3-triazol-4-yl)(4-fluorophenyl)methyl)amino) quinoline-3-carbonitrile] |
| 7.7 | N#Cc1cnc2c(Cl)cc(NC(c3ccc(Cl)cc3)c3cn([C@H]4CCN(C(=O)OCc5ccccc5)C4)nn3)cc2c1Nc1ccc(F)c(Cl)c1 (stereo partly drawn) [Example 878, benzyl (3S)-3-(4-(((8-chloro-4-((3-chloro-4-fluorophenyl)amino)-3-cyanoquinolin-6-yl)amino)(4-chlorophenyl)methyl)-1H-1,2,3-triazol-1-yl)pyrrolidine-1-carboxylate] |
| 0.101 | CCN1CC[C@H](n2cc(C(Nc3cc(Cl)c4ncc(C#N)c(Nc5ccc(F)c(Cl)c5)c4c3)c3ccc(Cl)cc3)nn2)C1 (stereo partly drawn) [Example 879, 8-chloro-4-((3-chloro-4-fluorophenyl)amino)-6-(((4-chlorophenyl)(1-((S)-1-ethylpyrrolidin-3-yl)-1H-1,2,3-triazol-4-yl)methyl)amino)quinoline-3-carbonitrile] |
| 0.068 | N#Cc1cnc2c(Cl)cc(NC(c3ccc(Cl)cc3)c3cn([C@H]4CCNC4)nn3)cc2c1Nc1ccc(F)c(Cl)c1 (stereo partly drawn) [Example 880, 8-chloro-4-((3-chloro-4-fluorophenyl)amino)-6-(((4-chlorophenyl)(1-((S)-pyrrolidin-3-yl)-1H-1,2,3-triazol-4-yl)methyl)amino)quinoline-3-carbonitrile] |
| 6.68 | Cc1cc(F)ccc1C(Nc1cc(Cl)c2ncc(C#N)c(Nc3ccc(F)c(Cl)c3)c2c1)c1cn(C2CCN(C(=O)OCc3ccccc3)CC2)nn1 (stereo not shown) [Example 883, benzyl 4-(4-(((8-chloro-4-((3-chloro-4-fluorophenyl)amino)-3-cyanoquinolin-6-yl)amino)(4-fluoro-2-methylphenyl)methyl)-1H-1,2,3-triazol-1-yl) piperidine-1-carboxylate] |
| 0.011 | N#Cc1cnc2c(Cl)cc(NC(c3ccc(F)cc3)c3cn(C4CCNCC4)nn3)cc2c1Nc1ccc(F)c(Cl)c1 (stereo not shown) [Example 886, 8-chloro-4-((3-chloro-4-fluorophenyl)amino)-6-(((4-fluorophenyl)(1-(piperidin-4-yl)-1H-1,2,3-triazol-4-yl)methyl)amino)quinoline-3-carbonitrile] |
| 0.05 | N#Cc1cnc2c(Cl)cc(NC(c3ccccc3)c3c[nH]nn3)cc2c1Nc1ccc(F)c(Cl)c1 (stereo not shown) [Example 888, 8-chloro-4-((3-chloro-4-fluorophenyl)amino)-6-((phenyl(1H-1,2,3-triazol-4-yl)methyl)amino)quinoline-3-carbonitrile] |
| > 10 | N#Cc1cnc2c(Cl)cc(NC(c3cc(F)c(F)c(F)c3)c3cn(C4CCN(C(=O)OCc5ccccc5)CC4)nn3)cc2c1Nc1ccc(F)c(Cl)c1 (stereo not shown) [Example 890, benzyl 4-(4-(((8-chloro-4-((3-chloro-4-fluorophenyl)amino)-3-cyanoquinolin-6-yl)amino)(3,4,5-trifluorophenyl)methyl)-1H-1,2,3-triazol-1-yl)piperidine-1-carboxylate] |
